The values below come from patent publication US5674894A, “Amidine derivatives useful as platelet aggregation inhibitors and vasodilators” (G.D. Searle & Co., priority 1995, dated 1997).

What is called IC50 is the concentration that gives 50% inhibition.

Bounds are passed on as bounds.

The target in assay [1] is purified human vitronectin receptor (αv β3) (Homo sapiens, UniProt P05106+P06756). Nature of the assay: Solid phase receptor assay, competitive binding to purified human vitronectin receptor. The settings on record: biotinylated vitronectin 1 nM final, two hours, highest concentration 1.0×10^-4M, read-out: IC50 Vitronetin receptor. On the procedure:
(§1) The compounds of the above invention were tested in the in vitro human platelet aggregation assay in platelet rich plasma (PRP) and in the competitive solid phase binding assay against purified human fibrinogen and vitronectin receptors.
(§2) Solid Phase Receptor Assays
(§3) These assays were essentially the same as previously reported. The purified human vitronectin receptor(αv β3) or purified human fibrinogen receptor(IIb^β 3) were diluted from stock solutions to 1.0 μg/mL in Tris-buffered saline containing 1.0 mM Ca^++, Mg^++, and Mn^++, pH 7.4 (TBS^+++). The diluted receptor was immediately transferred to Linbro microtiter plates at 100 μL/well (100 ng receptor/well). The plates were sealed and incubated overnight at 4° C. to allow the receptor to bind to the wells. All remaining steps were at room temperature. The assay plates are emptied and 200 μL of 1% radioimmunoassay grade bovine serum albumin in TBS^+++ (TBS^+++ /BSA) were added to block exposed plastic surfaces. Following a 2 hour incubation, the assay plates were washed with TBS^+++ using a 96 well plate washer. Logarithmic serial dilution of the test compound and controls were made starting at a stock concentration of 2 mM and using 2 nM biotinylated vitronectin in TBS^+++ /BSA as the diluent. This premixing of labeled ligand with test (or control) ligand, and subsequent transfer of 50 μL aliquots to the assay plate was carried out with a CETUS Propette robot; the final concentration of the labeled ligand was 1 nM and the highest concentration of test compound was 1.0×10^-4M. The competition occurred for two hours after which all wells were washed with a plate washer as before. Affinity purified horseradish peroxidase labeled goat anti-biotin antibody was diluted 1:3000 in TBS^+++ /BSA and 125 μL were added to each well. After 30 minutes, the plates were washed and incubated with o-phenylendiamine/H2 O2 substrate in 100 mM/L Citrate buffer, pH 5.0. The plate was read with a microtiter plate reader at a wavelength of 450 nm and when the maximum-binding control wells reached an absorbance of about 1.0, the final A450 were recorded for analysis. The data were analyzed using a macro written for use with the EXCEL™ spreadsheet program. The mean, standard deviation, and % coefficient variation were determined for duplicate concentrations. The mean A450 values were normalized to the mean of four maximum-binding controls (no competitor added). The normalized values were subjected to a four parameter curve fit algorithm, plotted on a semi-log scale, and the computed IC50 and corresponding correlation coefficient was reported. GRGDSP, a peptide fragment of fibrinogen, was included on each plate as a positive control.

Assay [2] concerns the target purified human fibrinogen receptor (IIb^β 3) (Homo sapiens, UniProt P05106+P08514). Nature of the assay: Solid phase receptor assay, competitive binding to purified human fibrinogen receptor. To be noted: biotinylated ligand 1 nM final, two hours, room temperature. On the procedure:
as §1, §2, §3

Assay [3] has as its system ADP-Induced Platelet Aggregation in Human PRP. Nature of the assay: In-Vitro Human Platelet Aggregation in PRP (ADP-induced). It counts as cell-based. To be noted: 1 minute preincubation at 37° C., tested in duplicate, read-out: IC50, inhibition of ADP-induced platelet aggregation in human PRP. On the procedure: as §1
In-Vitro Human Platelet Aggregation in PRP:
Healthy male or female donors who have not taken any antiplatelet drugs for at least two weeks were fasted for 8 hours prior to drawing blood; then 30 mL whole blood was collected using a butterfly needle and 30 cc plastic syringe with 3 mL of 0.129M buffered sodium citrate (3.8%). The syringe was rotated carefully as blood was drawn to mix the citrate. Platelet-richplasma (PRP) was prepared by centrifugation at 250× g for 12 minutes at room temperature, allowing the centrifuge to coast to a stop without braking. The PRP was removed from the blood with a plastic pipette and placed in a plastic capped, 50 mL Corning conical sterile centrifuge tube which was held at room temperature. Platelet-poor plasma (PPP) was prepared by centrifuging the remaining blood at 2000× g for 15 minutes at room temperature allowing the centrifuge to coast to a stop without braking. The PRP was adjusted with PPP to a count of 2-3×10^8 platelets per mL. 450 μL of the PRP preparation and 50 μL of the compound to be tested or saline were preincubated for 1 minute at 37° C. in a Payton aggregometer (Payton Scientific, Inc., Buffalo, N.Y.). 50 μL of adenosine 5'-diphosphate (ADP) ([…]) was added to the cuvettes and the aggregation was monitored for 1 minute. All compounds are tested in duplicate. Results are calculated as follows: Percent of control=[(maximal OD minus initial OD of compound) divided by (maximal OD minus initial OD of control saline)]×100. The % inhibition=100-(percent of control). The compounds tested and their activity results at median inhibitory concentration (IC50) were as recorded in Table 1.

On to `N=C(N)c1ccc(CCCCC(=O)NC(CC(=O)O)C(=O)O[C@H]2CO[C@H]3[C@@H]2OC[C@H]3O[N+](=O)[O-])cc1` (stereo partly drawn) [Example 3], for which the concentration for half-maximal inhibition (IC50) was over 100000 nM in assay [1], 3.11 nM in assay [2] and 2000 nM in assay [3].

With `N=C(N)c1ccc(NC(=O)CCC(=O)NC(CC(=O)O)C(=O)O[C@H]2CO[C@H]3[C@@H]2OC[C@H]3O[N+](=O)[O-])cc1` (stereo partly drawn) [Example 6], the IC50 in assay [1] was over 100000 nM; in assay [2], 0.25 nM; in assay [3] it was 400 nM.

For `N=C(N)c1ccc(CCCCC(=O)NC(CC(=O)O)C(=O)OC2COC3C(O)COC23)cc1` (stereo not drawn) [Example 5], the values for the IC50 in assay [1], in assay [2] and in assay [3] were over 100000 nM, 1.28 nM and 2000 nM, respectively.

Consider `N=C(N)c1ccc(NC(=O)CCC(=O)NC(CC(=O)O)C(=O)O[C@H]2CO[C@H]3[C@@H]2OC[C@H]3O)cc1` (stereo partly drawn) [Example 8], for which the IC50 is over 100000 nM in assay [1], 0.71 nM in assay [2] and 300 nM in assay [3].
